According to ChEMBL document CHEMBL1150051, “Antiviral (RNA) activity of selected Amaryllidaceae isoquinoline constituents and synthesis of related substances” (J Nat Prod, 1992):
≈ marks a conversion by molar mass, not a printed value.

Columns and labels:
[1] = system: Japanese encephalitis virus; experiment: Antiviral activity against Japanese encephalitis virus Nakayama infected in african green monkey Vero cells assessed as inhibition of virus-induced cytopathic effect by MTT assay; format: functional, organism-based
Yellow fever virus = experiment: Antiviral activity against Yellow fever virus Ashibi infected in african green monkey Vero cells assessed as inhibition of virus-induced cytopathic effect by MTT assay; format: functional, organism-based
Punta Toro virus = experiment: Antiviral activity against Punta Toro virus Adames infected in african green monkey Vero cells assessed as inhibition of virus-induced cytopathic effect by MTT assay; format: functional, organism-based
Rift Valley fever virus = experiment: Antiviral activity against Rift Valley fever virus infected in african green monkey Vero cells after 6 days by plaque reduction assay; format: functional, organism-based
[2] = system: Sandfly fever Sicilian virus; experiment: Antiviral activity against Sandfly fever sicilian virus infected in african green monkey Vero cells assessed as inhibition of virus-induced cytopathic effect by MTT assay; format: functional, organism-based
[3] = Therapeutic index, ratio of TC50 for african green monkey Vero cells to IC50 for Japanese encephalitis virus Nakayama; format: cell-based; settings: read-out: TI
[4] = Therapeutic index, ratio of TC50 for african green monkey Vero cells to IC50 for Yellow fever virus Ashibi; format: cell-based; settings: read-out: TI
dengue virus type 4 = experiment: Antiviral activity against Dengue virus type 4 infected in african green monkey Vero cells after 6 days by plaque reduction assay; format: functional, organism-based; settings: Dengue virus, Vero, 144 h; read-out: IC50
[5] = Therapeutic index, ratio of TC50 for african green monkey Vero cells to IC50 for Dengue type 4 virus; format: cell-based; settings: read-out: TI
[6] = Therapeutic index, ratio of TC50 for african green monkey Vero cells to IC50 for Punta toro virus Adames; format: cell-based; settings: read-out: TI
[7] = Therapeutic index, ratio of TC50 for african green monkey Vero cells to IC50 for Rift valley fever virus; format: cell-based; settings: read-out: TI
[8] = Therapeutic index, ratio of TC50 for african green monkey Vero cells to IC50 for Sandfly fever sicilian virus; format: cell-based; settings: read-out: TI
[9] = Japanese encephalitis virus, Nakayama, Vero, read-out: IC50
[10] = Yellow fever virus, Ashibi, Vero, read-out: IC50
[11] = Punta Toro virus, Adames, Vero, read-out: IC50
[12] = Rift Valley fever virus, Vero, 144 h, read-out: IC50
[13] = sandfly fever Sicilian virus, Vero, read-out: IC50

O=C1N[C@H]2C[C@@H](O)[C@@H](O)[C@H](O)[C@@H]2c2cc3c(cc21)OCO3
IC50 ([1]; vero): Not Active | IC50 (Yellow fever virus; vero): Not Active | IC50 (Punta Toro virus; vero): Not Active | IC50 (Rift Valley fever virus; vero): Not Active | IC50 ([2]; vero): Not Active

O=C1N[C@@H]2C(=C[C@H](O)[C@@H](O)[C@H]2O)c2cc3c(cc21)OCO3
IC50 [1, 9]: 0.056 µg/mL (≈ 0.192 µM) | selectivity ratio [3]: 4.9 | IC50 (Yellow fever virus; [10]): 0.053 µg/mL (≈ 0.182 µM) | selectivity ratio [4]: 5.6 | IC50 (dengue virus type 4): 0.059 µg/mL (≈ 0.203 µM) | selectivity ratio [5]: 4.2 | IC50 (Punta Toro virus; [11]): 0.042 µg/mL (≈ 0.144 µM) | selectivity ratio [6]: 6.3 | IC50 (Rift Valley fever virus; [12]): 0.15 µg/mL (≈ 0.515 µM) | selectivity ratio [7]: 5.5 | IC50 [2, 13]: 0.058 µg/mL (≈ 0.199 µM) | selectivity ratio [8]: 4.5

O=C1N[C@H]2[C@H](O)[C@H](O)[C@@H](O)C[C@H]2c2cc3c(cc21)OCO3
IC50 [1, 9]: 12.7 µg/mL (≈ 43.3 µM) | selectivity ratio [3]: 4.9 | IC50 (Yellow fever virus; [10]): 9.6 µg/mL (≈ 32.7 µM) | selectivity ratio [4]: 6.6 | IC50 (dengue virus type 4): 4.4 µg/mL (≈ 15 µM) | selectivity ratio [5]: 5.7 | IC50 (Punta Toro virus; [11]): 14 µg/mL (≈ 47.7 µM) | selectivity ratio [6]: 4.8 | IC50 [2, 13]: 25 µg/mL (≈ 85.2 µM) | selectivity ratio [8]: 3

O=C1N[C@H]2C=C[C@@H](O)[C@H](O)[C@@H]2c2cc3c(cc21)OCO3
IC50 ([1]; vero): Not Active | IC50 (Yellow fever virus; vero): Not Active | IC50 (Punta Toro virus; vero): Not Active | IC50 (Rift Valley fever virus; vero): Not Active | IC50 ([2]; vero): Not Active

COc1cc2c(cc1O)[C@@H]1[C@H](O)[C@@H](O)C=C3CCN(C2)[C@H]31 [PSEUDOLYCORINE]
IC50 [1, 9]: 0.28 µg/mL (≈ 0.968 µM) | selectivity ratio [3]: 5 | IC50 (Yellow fever virus; [10]): 0.35 µg/mL (≈ 1.21 µM) | selectivity ratio [4]: 3.7 | IC50 (dengue virus type 4): 0.39 µg/mL (≈ 1.35 µM) | selectivity ratio [5]: 2.6 | IC50 (Punta Toro virus; [11]): 0.6 µg/mL (≈ 2.07 µM) | selectivity ratio [6]: 3.9 | IC50 (Rift Valley fever virus; [12]): 0.63 µg/mL (≈ 2.18 µM) | selectivity ratio [7]: 6 | IC50 ([2]; vero): Not Active

O=c1[nH]c2c(c3cc4c(c(O)c13)OCO4)C[C@H](O)[C@@H](O)[C@H]2O [ISONARCICLASINE]
IC50 [1, 9]: 0.72 µg/mL (≈ 2.34 µM) | selectivity ratio [3]: 2.1 | IC50 (Yellow fever virus; [10]): 0.22 µg/mL (≈ 0.716 µM) | selectivity ratio [4]: 4.1 | IC50 (dengue virus type 4): 0.27 µg/mL (≈ 0.879 µM) | selectivity ratio [5]: 18.5 | IC50 (Punta Toro virus; [11]): 0.28 µg/mL (≈ 0.911 µM) | selectivity ratio [6]: 5.1 | IC50 (Rift Valley fever virus; [12]): 3.3 µg/mL (≈ 10.7 µM) | selectivity ratio [7]: 7.6 | IC50 ([2]; vero): Not Active

CC(=O)O[C@@H]1[C@@H](OC(C)=O)[C@H](O)[C@@H]2c3cc4c(cc3C(=O)N[C@H]2[C@@H]1OC(C)=O)OCO4
IC50 [1, 9]: 4.5 µg/mL (≈ 10.3 µM) | selectivity ratio [3]: 3.6 | IC50 (Yellow fever virus; [10]): 2.2 µg/mL (≈ 5.05 µM) | selectivity ratio [4]: 3.8 | IC50 (dengue virus type 4): < 5 µg/mL | selectivity ratio [5]: > 20 | IC50 (Punta Toro virus; [11]): 2.5 µg/mL (≈ 5.74 µM) | selectivity ratio [6]: 4.2 | IC50 (Rift Valley fever virus; vero): Not Active | IC50 ([2]; vero): Not Active

O=C1N[C@H]2[C@H](O)[C@H](O)[C@@H](O)C[C@H]2c2cc3c(c(O)c21)OCO3
IC50 [1, 9]: 0.96 µg/mL (≈ 3.1 µM) | selectivity ratio [3]: 5.1 | IC50 (Yellow fever virus; [10]): 1.3 µg/mL (≈ 4.2 µM) | selectivity ratio [4]: 3.9 | IC50 (dengue virus type 4): 2.5 µg/mL (≈ 8.08 µM) | selectivity ratio [5]: > 2 | IC50 (Punta Toro virus; [11]): 2.2 µg/mL (≈ 7.11 µM) | selectivity ratio [6]: 3.6 | IC50 (Rift Valley fever virus; [12]): 1.4 µg/mL (≈ 4.53 µM) | selectivity ratio [7]: 3.6 | inhibition (INH) [2]: 25%

O=C1N[C@H]2CC=C[C@H](O)[C@@H]2c2cc3c(cc21)OCO3
IC50 ([1]; vero): Not Active | IC50 (Yellow fever virus; vero): Not Active | IC50 (Punta Toro virus; vero): Not Active | IC50 (Rift Valley fever virus; vero): Not Active | IC50 ([2]; vero): Not Active

O[C@H]1[C@H]2c3cc4c(cc3CN3CCC(=C[C@@H]1O)[C@H]23)OCO4 [LYCORINE]
IC50 [1, 9]: 0.33 µg/mL (≈ 1.15 µM) | selectivity ratio [3]: 8.2 | IC50 (Yellow fever virus; [10]): 0.28 µg/mL (≈ 0.975 µM) | selectivity ratio [4]: 7.3 | IC50 (dengue virus type 4): 0.24 µg/mL (≈ 0.835 µM) | selectivity ratio [5]: 10.4 | IC50 (Punta Toro virus; [11]): 0.5 µg/mL (≈ 1.74 µM) | selectivity ratio [6]: 4.6 | IC50 (Rift Valley fever virus; [12]): 0.93 µg/mL (≈ 3.24 µM) | selectivity ratio [7]: 5.4 | IC50 ([2]; vero): Not Active
